Experimental data taken from ChEMBL document CHEMBL5365481, “Design, Synthesis, and Activity Evaluation of Novel Dual-Target Inhibitors with Antifungal and Immunoregulatory Properties” (J Med Chem, 2023).
In brackets after ≈: the same amount, converted by molar mass. Activity calls are given as the source filed them. The rule behind the calls is not given here.

How the values were obtained:
Candida albicans [1] = assay: Antifungal activity against Candida albicans ATCC SC5314 assessed as inhibition of fungal growth incubated for 72 hrs by CLSI based liquid medium microdilution method; type: functional
Cryptococcus neoformans = assay: Antifungal activity against Cryptococcus neoformans ZKCC 2209 assessed as inhibition of fungal growth incubated for 72 hrs by CLSI based liquid medium microdilution method; type: functional
Pichia kudriavzevii = assay: Antifungal activity against Candida krusei ATCC 6258 assessed as inhibition of fungal growth incubated for 72 hrs by CLSI based liquid medium microdilution method; type: functional
Candida tropicalis = assay: Antifungal activity against Candida tropicalis ATCC 1369 assessed as inhibition of fungal growth incubated for 72 hrs by CLSI based liquid medium microdilution method; type: functional
Aspergillus fumigatus = assay: Antifungal activity against Aspergillus fumigatus KM8001 assessed as inhibition of fungal growth incubated for 72 hrs by CLSI based liquid medium microdilution method; type: functional
Candida albicans [2] = assay: Antifungal activity against fluconazole-resistant Candida albicans CaR assessed as inhibition of fungal growth incubated for 72 hrs by CLSI based liquid medium microdilution method; type: functional
Candida albicans [3] = assay: Antifungal activity against fluconazole-resistant Candida albicans 17# assessed as inhibition of fungal growth incubated for 72 hrs by CLSI based liquid medium microdilution method; type: functional
Candida albicans [4] = assay: Antifungal activity against fluconazole-resistant Candida albicans 632 assessed as inhibition of fungal growth incubated for 72 hrs by CLSI based liquid medium microdilution method; type: functional
Candida albicans [5] = assay: Antifungal activity against fluconazole-resistant Candida albicans 901 assessed as inhibition of fungal growth incubated for 72 hrs by CLSI based liquid medium microdilution method; type: functional
Candida albicans [6] = assay: Antifungal activity against fluconazole-resistant Candida albicans 904 assessed as inhibition of fungal growth incubated for 72 hrs by CLSI based liquid medium microdilution method; type: functional
[7] = biological target: Programmed cell death protein 1/Programmed cell death 1 ligand 1 (Homo sapiens, UniProt Q9NZQ7); assay: Inhibition of PD-1/PD-L1 interaction (unknown origin) incubated for 15 mins by ELISA; type: protein-complex assay
Programmed cell death protein 1/Programmed cell death 1 ligand 1, sequence (Q15116 whole entry): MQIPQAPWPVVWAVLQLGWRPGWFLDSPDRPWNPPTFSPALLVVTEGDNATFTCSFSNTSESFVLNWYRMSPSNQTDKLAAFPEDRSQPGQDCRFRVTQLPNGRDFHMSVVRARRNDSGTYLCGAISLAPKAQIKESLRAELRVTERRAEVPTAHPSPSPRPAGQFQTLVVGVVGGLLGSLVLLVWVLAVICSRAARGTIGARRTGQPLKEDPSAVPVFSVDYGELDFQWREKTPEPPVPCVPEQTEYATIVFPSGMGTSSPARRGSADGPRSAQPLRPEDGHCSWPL
Programmed cell death protein 1/Programmed cell death 1 ligand 1, sequence (Q9NZQ7 whole entry): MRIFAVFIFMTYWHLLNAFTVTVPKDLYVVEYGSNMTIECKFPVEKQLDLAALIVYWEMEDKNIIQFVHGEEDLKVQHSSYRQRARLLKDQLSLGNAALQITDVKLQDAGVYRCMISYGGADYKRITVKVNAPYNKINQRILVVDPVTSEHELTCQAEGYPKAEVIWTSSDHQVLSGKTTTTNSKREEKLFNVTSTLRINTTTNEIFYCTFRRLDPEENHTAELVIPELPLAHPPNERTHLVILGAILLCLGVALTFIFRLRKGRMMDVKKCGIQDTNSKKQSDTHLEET

[8] = biological target: T1, Lanosterol 14-alpha demethylase (Candida albicans (strain SC5314 / ATCC MYA-2876) (Yeast), UniProt P10613); assay: Inhibition of Candida albicans ATCC SC5314 CYP51 using lanosterol as substrate incubated for 30 mins by HPLC assay
T1 sequence (P10613 whole entry): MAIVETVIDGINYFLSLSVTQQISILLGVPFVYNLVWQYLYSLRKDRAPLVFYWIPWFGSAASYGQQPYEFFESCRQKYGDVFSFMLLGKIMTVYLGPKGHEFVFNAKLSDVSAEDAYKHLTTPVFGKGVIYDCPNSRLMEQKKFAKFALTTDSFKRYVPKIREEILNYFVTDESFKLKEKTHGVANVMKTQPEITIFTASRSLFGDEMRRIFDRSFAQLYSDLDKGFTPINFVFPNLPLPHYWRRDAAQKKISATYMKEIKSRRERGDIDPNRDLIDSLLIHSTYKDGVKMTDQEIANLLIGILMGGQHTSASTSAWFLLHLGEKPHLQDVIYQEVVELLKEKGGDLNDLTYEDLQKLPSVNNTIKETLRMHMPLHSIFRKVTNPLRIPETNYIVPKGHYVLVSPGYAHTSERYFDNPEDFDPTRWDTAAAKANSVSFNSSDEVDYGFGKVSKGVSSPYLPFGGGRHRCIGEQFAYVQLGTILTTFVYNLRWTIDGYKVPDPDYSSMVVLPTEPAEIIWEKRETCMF

[9] = biological target: Programmed cell death 1 ligand 1 (Homo sapiens, UniProt Q9NZQ7); assay: Binding affinity to PD-L1 (unknown origin) assessed as dissociation constant by SPR analysis
Programmed cell death 1 ligand 1, sequence (Q9NZQ7 whole entry): as the sequence (Q9NZQ7 whole entry) above

[10] = biological target: T1, Lanosterol 14-alpha demethylase; assay: Inhibition of Candida albicans ATCC SC5314 CYP51 assessed as ergosterol content at 4 ug/ml measured after 16 hrs by GC-MS analysis (reference value: 92.71%); set-up: scale not given: the % may be the effect or the level left; conditions: at 4 µg/mL
[11] = biological target: T1, Lanosterol 14-alpha demethylase; assay: Inhibition of Candida albicans ATCC SC5314 CYP51 assessed as lanosterol content at 4 ug/ml measured after 16 hrs by GC-MS analysis relative to control; set-up: scale not given: the % may be the effect or the level left; conditions: at 4 µg/mL
[12] = biological target: T1, Lanosterol 14-alpha demethylase; assay: Inhibition of Candida albicans ATCC SC5314 CYP51 assessed as eburicol content at 4 ug/ml measured after 16 hrs by GC-MS analysis (Rvb= 3.47%); set-up: scale not given: the % may be the effect or the level left; conditions: at 4 µg/mL
[13] = biological target: T1, Lanosterol 14-alpha demethylase; assay: Inhibition of Candida albicans ATCC SC5314 CYP51 assessed as other unknown sterol content at 4 ug/ml measured after 16 hrs by GC-MS analysis (Rvb= 3.82%); set-up: scale not given: the % may be the effect or the level left; conditions: at 4 µg/mL
Candida albicans [14] = assay: Antifungal activity against Candida albicans ATCC SC5314 assessed as decrease in fungal cell density at 1 microM/ml incubated for 48 hrs by absorbance based assay; type: functional, organism-based
Candida albicans [15] = assay: Antifungal activity against Candida albicans ATCC SC5314 assessed as change in osmotic pressure at 1 microM/ml incubated for 48 hrs by absorbance based assay; type: functional, organism-based
Candida albicans [16] = assay: Antifungal activity against Candida albicans ATCC SC5314 assessed as change in structural stability at 1 microM/ml incubated for 48 hrs by absorbance based assay; type: functional, organism-based
Candida albicans [17] = assay: Induction of ROS generation in Candida albicans ATCC SC5314 assessed as increase in fluorescence intensity at 1 microM/ml incubated for 48 hrs by fluorescent microscopy; type: functional, organism-based
Candida albicans [18] = assay: Induction of mitochondrial membrane depolarization in Candida albicans ATCC SC5314 assessed as polarized cells at 1 microM/ml incubated for 24 hrs by JC-1 staining based flow cytometry assay (reference value: 0.28 +/- 0.02%); type: functional
Candida albicans [19] = assay: Induction of mitochondrial membrane depolarization in Candida albicans ATCC SC5314 assessed as normal cells at 1 microM/ml incubated for 24 hrs by JC-1 staining based flow cytometry assay (reference value: 94.4 +/- 1.15%); type: functional
Candida albicans [20] = assay: Induction of mitochondrial membrane depolarization in Candida albicans ATCC SC5314 assessed as depolarized cells at 1 microM/ml incubated for 24 hrs by JC-1 staining based flow cytometry assay (reference value: 0.3 to 5.1%); type: functional
Candida albicans [21] = assay: Induction of apoptosis in Candida albicans ATCC SC5314 assessed as increase in blue fluorescence intensity at 1 microM/ml incubated for 48 hrs by Hoechst 33258/PI staining based fluorescence microscopy; type: functional, organism-based
Candida albicans [22] = assay: Induction of apoptosis in Candida albicans ATCC SC5314 assessed as normal cells at 1 microM/ml incubated for 48 hrs by Hoechst 33258/PI staining based flow cytometry (Rvb= 94.8 +/- 0.3%); type: functional
Candida albicans [23] = assay: Induction of apoptosis in Candida albicans ATCC SC5314 assessed as early apoptotic cells at 1 microM/ml incubated for 48 hrs by Hoechst 33258/PI staining based flow cytometry (Rvb= 5.1 +/- 0.3%); type: functional
Candida albicans [24] = assay: Induction of apoptosis in Candida albicans ATCC SC5314 assessed as late apoptotic cells at 1 microM/ml incubated for 48 hrs by Hoechst 33258/PI staining based flow cytometry (Rvb= 0.05 +/- 0.01%); type: functional
Candida albicans [25] = assay: Induction of apoptosis in Candida albicans ATCC SC5314 assessed as necrotic cells at 1 microM/ml incubated for 48 hrs by Hoechst 33258/PI staining based flow cytometry (Rvb= 0.03 +/- 0.01%); type: functional
Candida albicans [26] = assay: In vivo antifungal activity against Candida albicans ATCC SC5314 infected in BALB/c mouse assessed as decrease in COX2 expression level at 10 ug, ip for 14 days by Western blot analysis; type: functional, organism-based; conditions: dose 10.0 µg, time 14.0 day
Candida albicans [27] = assay: In vivo antifungal activity against Candida albicans ATCC SC5314 infected in BALB/c mouse assessed as decrease in NLRP3 expression level at 10 ug, ip for 14 days by Western blot analysis; type: functional, organism-based; conditions: dose 10.0 µg, time 14.0 day
Candida albicans [28] = assay: In vivo antifungal activity against Candida albicans ATCC SC5314 infected in BALB/c mouse assessed as decrease in IFN-gamma expression level at 10 ug, ip for 14 days by Western blot analysis; type: functional, organism-based; conditions: dose 10.0 µg, time 14.0 day
Candida albicans [29] = assay: In vivo antifungal activity against Candida albicans ATCC SC5314 infected in BALB/c mouse assessed as decrease in PD-L1 expression level at 10 ug, ip for 14 days by Western blot analysis; type: functional, organism-based; conditions: dose 10.0 µg, time 14.0 day

Compound `CC(=O)c1ccc(NC(=O)c2nc(-n3ccnc3)c3ccccc3n2)cc1` has an MIC50 (Candida albicans [1]) of 0.5 µg/mL (≈ 1.4 µM), an MIC50 (Cryptococcus neoformans) of 1 µg/mL (≈ 2.8 µM) and an MIC50 (Pichia kudriavzevii) of 1 µg/mL (≈ 2.8 µM). For the same compound, the MIC50 (Candida tropicalis) was 1 µg/mL (≈ 2.8 µM), the MIC50 (Aspergillus fumigatus) was 2 µg/mL (≈ 5.6 µM) and the MIC50 (Candida albicans [2]) was 4 µg/mL (≈ 11.2 µM). For the same compound, the MIC50 (Candida albicans [3]) was 2 µg/mL (≈ 5.6 µM), the MIC50 (Candida albicans [4]) was 2 µg/mL (≈ 5.6 µM) and the MIC50 (Candida albicans [5]) was > 8 µg/mL. The MIC50 (Candida albicans [6]) was 4 µg/mL (≈ 11.2 µM), the IC50 [7] was 0.083 µM and the IC50 [8] was 0.884 µM. The Kd [9] was 0.0345 µM, the Activity [10] was 21.53% and the Activity [11] was 20.64%. For the same compound, the Activity [12] was 41.69%, the Activity [13] was 6.14% and the Activity (Candida albicans [14]) was “Active”. The Activity (Candida albicans [15]) was “Active”, the Activity (Candida albicans [16]) was “Active” and the Activity (Candida albicans [17]) was “Active”. The Activity (Candida albicans [18]) was 0.07%, the Activity (Candida albicans [19]) was 77.1% and the Activity (Candida albicans [20]) was 0.16%. The Activity (Candida albicans [21]) was “Active”, the Activity (Candida albicans [22]) was 55.1% and the Activity (Candida albicans [23]) was 44.8%. The Activity (Candida albicans [24]) was 0.13%, the Activity (Candida albicans [25]) was 0.03% and the Activity (Candida albicans [26]) was “Active”. For the same compound, the Activity (Candida albicans [27]) was “Active”, the Activity (Candida albicans [28]) was “Active” and the Activity (Candida albicans [29]) was “Active”.
